The values that follow come from patent publication US20170202783A1, “Amphiphilic Peptide Nanoparticles for Use as Hydrophobic Drug Carriers and Antibacterial Agents” (Northeastern University, priority 2014, published 2017).

Data set [1] can be described thus: Zeta potential measurement (ZS90 Nanosizer). In kind it is physicochemical. Conditions: deionized water. Here is the method: The zeta potential of the nanoparticles was determined using 1 mL of each sample, each measured for ten preparations in triplicate.
Data set [2] deals with MG-63 osteosarcoma cells. Description: MTT cytotoxicity assay. Conditions: osteosarcoma cell line, highest concentration investigated, 24 hours, serum-free medium. The protocol:
(§1) MG-63 osteosarcoma (CRL-1427) cells (American Type Culture Collection) were cultured in Eagle's Minimum Essential Medium supplemented with 10% fetal bovine serum and 1% penicillin/streptomycin, while healthy human osteoblasts (C-12760, PromoCell) were cultured in complete growth medium composed of osteoblast basal medium and osteoblast growth medium Supplement Mix. Both cell lines were incubated at 37° C. in a humidified incubator with an atmosphere of 95% […] and 5% CO2. Cells were used at population doubling numbers less than 3. Eagle's Minimum Essential Medium was purchased from the American Type Culture Collection (Manassas, Va., USA), and osteoblast basal medium and osteoblast growth medium Supplemental Mix were purchased from PromoCell (Heidelberg, Germany). Methyl-thiazolyl-tetrazolium (MTT) dye solution was purchased from Promega (Madison, Wis., USA). 4′,6-diamidino-2-phenylindole (DAPI), and Atto Rho6G phalloidin were supplied by Sigma-Aldrich (St Louis, Mo., USA).
(§2) 100 μL of the osteosarcoma and healthy osteoblast cell suspensions were seeded on a 96-well plate at 2×10^3 cells/well (cell density 6,154 cells/cm^2). […] Cells treated with medium only were used as a […] control. […]
(§3) The cells were treated for 24 hours. […] Cell viability was expressed as the ratio of cell density in each sample to the cell density in the control sample.

The test system of data set [3] is healthy human osteoblasts. Kind of data set: MTT cytotoxicity assay. Conditions: human osteoblast cell line, highest concentration investigated, 24 hours, serum-free medium. The protocol:
as §1, §2, §3
For orientation: Tetrazolium dyes change colour on reduction, which living cells bring about.

The next data set relates to Human dermal fibroblasts. To be noted: 24 hours, MTS. The protocol: Human dermal fibroblasts (Lonza, CC-2511) were plated at a density of 10,000 cells/cm^2 in a 96-well plate and maintained in DMEM culture medium supplemented with 10% fetal bovine serum (FBS, Hyclone) and 1% penicillin/streptomycin (P/S, Hyclone). APNPs were added to the culture medium to achieve the indicated final concentration of C18GR7RGDS, and the cells were incubated for 24 hours prior to determination of cell density by MTS assay.

The nature of data set [4]: Solubility of curcumin in water. In kind it is physicochemical. To be noted: thermodynamic from solid.
For data set [5] the following is noted: background statement; cited from earlier work.
Data set [6] has as its system MG-63 osteosarcoma cells. Kind of data set: Cellular uptake of curcumin by bright field and confocal microscopy. The data set is classed as cell-based, human. To be noted: 20 μM curcumin. The protocol: (§4) A confocal laser scanning microscope and a bright field microscope were used for a qualitative study of the cellular uptake of curcumin from curcumin-loaded APNPs. First, 1 mL each of the osteosarcoma cell line and the healthy human osteoblast cell line were seeded on a 24-well plate at a density of 2×10^4 cells/mL. […] The cells were then rinsed with phosphate-buffered saline three times to remove the unabsorbed curcumin. The qualitative uptake of curcumin was then monitored by bright field microscopy. In another study, the nuclei of the cells were tracked by blue fluorescent DAPI staining using confocal microscopy (FIGS. 8A-8F), and the F-actin filaments of cells were stained with red fluorescent Rhodamine 6G. After 10 minutes of fixation by 10% formaldehyde solution and subsequent treatment with a 0.1% Triton X-100 solution for 10 minutes, the cells were stained with DAPI and Atto Rho6G phalloidin and observed using a Zeiss LSM710 laser scanning confocal microscope.

Data set [7] has as its system healthy human osteoblasts. Described as above. The data set is classed as cell-based. To be noted: normal human osteoblast cells, 20 μM curcumin. Here is the method: as §4

Where a SMILES comes first, the peptide text is derived from it. The star is where a group is joined. Stearoyl = CCCCCCCCCCCCCCCCCC(=O)*

Take `CCCCCCCCCCCCCCCCCC(=O)NCC(=O)N[C@@H](CCCNC(=N)N)C(=O)N[C@@H](CCCNC(=N)N)C(=O)N[C@@H](CCCNC(=N)N)C(=O)N[C@@H](CCCNC(=N)N)C(=O)N[C@@H](CCCNC(=N)N)C(=O)N[C@@H](CCCNC(=N)N)C(=O)N[C@@H](CCCNC(=N)N)C(=O)N[C@@H](CCCNC(=N)N)C(=O)NCC(=O)N[C@@H](CC(=O)O)C(=O)N[C@@H](CO)C(=O)O` [pure C18GR7RGDS APNPs] (Stearoyl-GRRRRRRRRGDS-OH): in data set [1], the “stability in aqueous solution (indicated by zeta potential)” value was “stable in aqueous solution”. Further, the cytotoxicity entry (in the data set on MG-63 osteosarcoma cells [2]; in data set [3]) was “minor cytotoxicity” each time. In the data set with Human dermal fibroblasts, the “concentration resulting in significant loss of cell viability (reduced density of living cells)” value was not below 40 µM.

Compound `COc1cc(/C=C/C(=O)CC(=O)/C=C/c2ccc(O)c(OC)c2)ccc1O` [curcumin, diferuloylmethane] yielded a solubility in data set [4] of less than 100 µg/mL. The solubility in water entry in data set [5] is given as “insoluble in water”. The “curcumin uptake, confocal fluorescence” value (in the data set on MG-63 osteosarcoma cells [6]; in data set [7]) was “neither cell line showed detectable fluorescence” throughout. For the same compound, the “curcumin uptake, bright field microscopy” value (with MG-63 osteosarcoma cells [6] (2 hours); in data set [7] (2 hours)) was “did not accumulate in the cytosol” in each case.

Usually solubility stands for the dissolved amount per volume that the medium holds. A lower solubility goes with a poorly soluble substance.
